Reference: ChEMBL document CHEMBL4145553, “Design, synthesis, and biological evaluation of novel amide and hydrazide based thioether analogs targeting Histone deacteylase (HDAC) enzymes” (Eur J Med Chem, 2018)
Calls of active or inactive are those of the source. No cut-off for these calls is given here.

How the values were obtained:
HCT-15 = test: Growth inhibition of human HCT15 cells assessed as cell growth at 10^-4 M incubated for 48 hrs by sulforhodamine B assay relative to control; format: functional; settings: HCT-15, 48 h, read-out: Activity
TK-10 = test: Growth inhibition of human TK10 cells assessed as cell growth at 10^-6 M incubated for 48 hrs by sulforhodamine B assay relative to control; format: functional; settings: TK-10, 48 h, read-out: Activity
MOLT-4 [1] = test: Growth inhibition of human MOLT4 cells assessed as cell growth at 10^-5 M incubated for 48 hrs by sulforhodamine B assay relative to control; format: functional; settings: MOLT-4, 48 h, read-out: Activity
OVCAR-5 = test: Growth inhibition of human OVCAR5 cells assessed as cell growth at 10^-5 M incubated for 48 hrs by sulforhodamine B assay relative to control; format: functional; settings: OVCAR-5, 48 h, read-out: Activity
LOX IMVI = test: Growth inhibition of human LOXIMVI cells assessed as cell growth at 10^-4 M incubated for 48 hrs by sulforhodamine B assay relative to control; format: functional; settings: read-out: Activity
K562 = test: Growth inhibition of human K562 cells assessed as cell growth at 10^-8 M incubated for 48 hrs by sulforhodamine B assay relative to control; format: functional; settings: K562, 48 h, read-out: Activity
786-0 [2] = test: Growth inhibition of human 786-0 cells assessed as cell growth at 10^-8 M incubated for 48 hrs by sulforhodamine B assay relative to control; format: functional; settings: 786-0, 48 h, read-out: Activity
SNB-19 [3] = test: Growth inhibition of human SNB19 cells assessed as cell growth at 10^-8 M incubated for 48 hrs by sulforhodamine B assay relative to control; format: functional; settings: SNB-19, 48 h, read-out: Activity
HL-60 [4] = test: Induction of apoptosis in human HL60 cells assessed as increase in gammaH2ax expression by qRT-PCR method; format: functional, cell-based
MDA-MB-435 = test: Growth inhibition of human MDA-MB-435 cells assessed as cell growth at 10^-4 M incubated for 48 hrs by sulforhodamine B assay relative to control; format: functional; settings: MDA-MB-435, 48 h, read-out: Activity
SW-620 = test: Growth inhibition of human SW620 cells incubated for 48 hrs by sulforhodamine B assay; format: functional; settings: SW-620, 48 h
HL-60 [5] = test: Cell cycle arrest in human HL60 cells assessed as accumulation at G1-phase by propidium iodide staining based flow cytometry (reference value: 67.27%); format: functional
SNB-19 [6] = test: Growth inhibition of human SNB19 cells incubated for 48 hrs by sulforhodamine B assay; format: functional; settings: SNB-19, 48 h
786-0 [7] = test: Growth inhibition of human 786-0 cells assessed as cell growth at 10^-6 M incubated for 48 hrs by sulforhodamine B assay relative to control; format: functional; settings: 786-0, 48 h, read-out: Activity
SK-MEL-5 = test: Growth inhibition of human SK-MEL-5 cells assessed as cell growth at 10^-6 M incubated for 48 hrs by sulforhodamine B assay relative to control; format: functional; settings: SK-MEL-5, 48 h, read-out: Activity
T47D = test: Growth inhibition of human T47D cells incubated for 48 hrs by sulforhodamine B assay; format: functional
MDA-MB-231 = test: Growth inhibition of human MDA-MB-231 cells incubated for 48 hrs by sulforhodamine B assay; format: functional; settings: MDA-MB-231, 48 h
SK-OV-3 = test: Growth inhibition of human SKOV3 cells assessed as cell growth at 10^-4 M incubated for 48 hrs by sulforhodamine B assay relative to control; format: functional; settings: SK-OV-3, 48 h, read-out: Activity
CAKI-1 = test: Growth inhibition of human Caki1 cells assessed as cell growth at 10^-7 M incubated for 48 hrs by sulforhodamine B assay relative to control; format: functional; settings: CAKI-1, 48 h, read-out: Activity
ACHN = test: Growth inhibition of human ACHN cells assessed as cell growth at 10^-4 M incubated for 48 hrs by sulforhodamine B assay relative to control; format: functional; settings: read-out: Activity
MOLT-4 [8] = test: Growth inhibition of human MOLT4 cells incubated for 48 hrs by sulforhodamine B assay; format: functional; settings: MOLT-4, 48 h
NCI-H23 = test: Growth inhibition of human NCI-H23 cells assessed as cell growth at 10^-8 M incubated for 48 hrs by sulforhodamine B assay relative to control; format: functional; settings: NCI-H23, 48 h, read-out: Activity
NCI-H322M = test: Growth inhibition of human NCI-H322M cells assessed as cell growth at 10^-8 M incubated for 48 hrs by sulforhodamine B assay relative to control; format: functional; settings: read-out: Activity
DU-145 = test: Growth inhibition of human DU145 cells assessed as cell growth at 10^-7 M incubated for 48 hrs by sulforhodamine B assay relative to control; format: functional; settings: DU-145, 48 h, read-out: Activity
Malme-3M [9] = test: Growth inhibition of human MALME-3M cells incubated for 48 hrs by sulforhodamine B assay; format: functional
SK-MEL-2 = test: Growth inhibition of human SK-MEL-2 cells incubated for 48 hrs by sulforhodamine B assay; format: functional; settings: SK-MEL-2, 48 h
Malme-3M [10] = test: Growth inhibition of human MALME-3M cells assessed as cell growth at 10^-7 M incubated for 48 hrs by sulforhodamine B assay relative to control; format: functional; settings: read-out: Activity
SK-MEL-28 = test: Growth inhibition of human SK-MEL-28 cells assessed as cell growth at 10^-4 M incubated for 48 hrs by sulforhodamine B assay relative to control; format: functional; settings: SK-MEL-28, 48 h, read-out: Activity
OVCAR-4 = test: Growth inhibition of human OVCAR4 cells assessed as cell growth at 10^-4 M incubated for 48 hrs by sulforhodamine B assay relative to control; format: functional; settings: OVCAR-4, 48 h, read-out: Activity
[11] = read-out: LC50 (the source's name)
[12] = read-out: pLC50 (the source's name) (converted)

## CCS/C(Nc1ccccc1)=C(\C#N)C(=O)N/N=C\c1ccc(Cl)cc1Cl
HCT-15
  growth at 100 µM: 11%
TK-10
  growth at 1 µM: 97%
MOLT-4 [1]
  growth at 10 µM: 22%
OVCAR-5
  growth at 10 µM: 45%
LOX IMVI
  growth at 100 µM: 22%
K562
  growth at 0.01 µM: 106%
786-0 [2]
  growth at 0.01 µM: 95%
SNB-19 [3]
  growth at 0.01 µM: 97%
HL-60 [4]
  Activity: Active
MDA-MB-435
  growth at 100 µM: -52%
SW-620; read-out: GI50
  GI50: 4.65 µM
SW-620; [11]
  CC50: > 100 µM
SW-620; read-out: TGI
  TGI: > 100 µM
SW-620; read-out: pGI50 (converted)
  GI50: 4.68 µM
SW-620; [12]
  CC50: > 100 µM
SW-620; read-out: pTGI
  TGI: > 100 µM
HL-60 [5]
  Activity: 46.38%
SNB-19 [6]; read-out: GI50
  GI50: 4.17 µM
SNB-19 [6]; [11]
  CC50: > 100 µM
SNB-19 [6]; read-out: TGI
  TGI: > 100 µM
SNB-19 [6]; read-out: pGI50 (converted)
  GI50: 4.17 µM
SNB-19 [6]; [12]
  CC50: > 100 µM
SNB-19 [6]; read-out: pTGI
  TGI: > 100 µM
786-0 [7]
  growth at 1 µM: 83%
SK-MEL-5
  growth at 1 µM: 81%
T47D; read-out: GI50
  GI50: 4.03 µM
T47D; [11]
  CC50: > 100 µM
T47D; read-out: TGI
  TGI: > 100 µM
T47D; read-out: pGI50 (converted)
  GI50: 4.07 µM
T47D; [12]
  CC50: > 100 µM
T47D; read-out: pTGI
  TGI: > 100 µM
MDA-MB-231; read-out: GI50
  GI50: 4.75 µM
MDA-MB-231; [11]
  CC50: > 100 µM
MDA-MB-231; read-out: TGI
  TGI: > 100 µM
MDA-MB-231; read-out: pGI50 (converted)
  GI50: 4.79 µM
MDA-MB-231; [12]
  CC50: > 100 µM
MDA-MB-231; read-out: pTGI (converted)
  TGI: > 100 µM
SK-OV-3
  growth at 100 µM: 12%
CAKI-1
  growth at 0.1 µM: 84%
ACHN
  growth at 100 µM: 29%
MOLT-4 [8]; read-out: GI50
  GI50: 3.48 µM
MOLT-4 [8]; [11]
  CC50: > 100 µM
MOLT-4 [8]; read-out: TGI
  TGI: > 100 µM
MOLT-4 [8]; read-out: pGI50 (converted)
  GI50: 3.47 µM
MOLT-4 [8]; [12]
  CC50: > 100 µM
MOLT-4 [8]; read-out: pTGI
  TGI: > 100 µM
NCI-H23
  growth at 0.01 µM: 105%
NCI-H322M
  growth at 0.01 µM: 94%
DU-145
  growth at 0.1 µM: 98%
Malme-3M [9]; read-out: GI50
  GI50: 9.3 µM
Malme-3M [9]; [11]
  CC50: > 100 µM
Malme-3M [9]; read-out: TGI
  TGI: > 100 µM
Malme-3M [9]; read-out: pGI50 (converted)
  GI50: 9.33 µM
Malme-3M [9]; [12]
  CC50: > 100 µM
Malme-3M [9]; read-out: pTGI
  TGI: > 100 µM
SK-MEL-2; read-out: GI50
  GI50: 3.24 µM
SK-MEL-2; [11]
  CC50: > 100 µM
SK-MEL-2; read-out: TGI
  TGI: 43.6 µM
SK-MEL-2; read-out: pGI50 (converted)
  GI50: 3.24 µM
SK-MEL-2; [12]
  CC50: > 100 µM
SK-MEL-2; read-out: pTGI
  TGI: 43.7 µM
Malme-3M [10]
  growth at 0.1 µM: 89%
SK-MEL-28
  growth at 100 µM: 45%
OVCAR-4
  growth at 100 µM: 9%

## CCS/C(Nc1ccccc1)=C(\C#N)C(=O)Nc1ccc(OC)cc1
HCT-15
  growth at 100 µM: 4%
TK-10
  growth at 1 µM: 97%
MOLT-4 [1]
  growth at 10 µM: 21%
OVCAR-5
  growth at 10 µM: 33%
LOX IMVI
  growth at 100 µM: 12%
K562
  growth at 0.01 µM: 106%
786-0 [2]
  growth at 0.01 µM: 97%
SNB-19 [3]
  growth at 0.01 µM: 98%
HL-60 [4]
  Activity: Active
MDA-MB-435
  growth at 100 µM: -35%
SW-620; read-out: GI50
  GI50: 2.55 µM
SW-620; [11]
  CC50: > 100 µM
SW-620; read-out: TGI
  TGI: > 100 µM
SW-620; read-out: pGI50 (converted)
  GI50: 2.57 µM
SW-620; [12]
  CC50: > 100 µM
SW-620; read-out: pTGI
  TGI: > 100 µM
HL-60 [5]
  Activity: 54.11%
SNB-19 [6]; read-out: GI50
  GI50: 3.55 µM
SNB-19 [6]; [11]
  CC50: > 100 µM
SNB-19 [6]; read-out: TGI
  TGI: > 100 µM
SNB-19 [6]; read-out: pGI50 (converted)
  GI50: 3.55 µM
SNB-19 [6]; [12]
  CC50: > 100 µM
SNB-19 [6]; read-out: pTGI
  TGI: > 100 µM
786-0 [7]
  growth at 1 µM: 83%
SK-MEL-5
  growth at 1 µM: 80%
T47D; read-out: GI50
  GI50: 4.08 µM
T47D; [11]
  CC50: > 100 µM
T47D; read-out: TGI
  TGI: > 100 µM
T47D; read-out: pGI50 (converted)
  GI50: 4.07 µM
T47D; [12]
  CC50: > 100 µM
T47D; read-out: pTGI
  TGI: > 100 µM
MDA-MB-231; read-out: GI50
  GI50: 4.14 µM
MDA-MB-231; [11]
  CC50: > 100 µM
MDA-MB-231; read-out: TGI
  TGI: 36.5 µM
MDA-MB-231; read-out: pGI50 (converted)
  GI50: 4.17 µM
MDA-MB-231; [12]
  CC50: > 100 µM
MDA-MB-231; read-out: pTGI (converted)
  TGI: 36.3 µM
SK-OV-3
  growth at 100 µM: -4%
CAKI-1
  growth at 0.1 µM: 85%
ACHN
  growth at 100 µM: 17%
MOLT-4 [8]; read-out: GI50
  GI50: 2.61 µM
MOLT-4 [8]; [11]
  CC50: > 100 µM
MOLT-4 [8]; read-out: TGI
  TGI: > 100 µM
MOLT-4 [8]; read-out: pGI50 (converted)
  GI50: 2.63 µM
MOLT-4 [8]; [12]
  CC50: > 100 µM
MOLT-4 [8]; read-out: pTGI
  TGI: > 100 µM
NCI-H23
  growth at 0.01 µM: 97%
NCI-H322M
  growth at 0.01 µM: 95%
DU-145
  growth at 0.1 µM: 96%
Malme-3M [9]; read-out: GI50
  GI50: 47.3 µM
Malme-3M [9]; [11]
  CC50: > 100 µM
Malme-3M [9]; read-out: TGI
  TGI: > 100 µM
Malme-3M [9]; read-out: pGI50 (converted)
  GI50: 46.8 µM
Malme-3M [9]; [12]
  CC50: > 100 µM
Malme-3M [9]; read-out: pTGI
  TGI: > 100 µM
SK-MEL-2; read-out: GI50
  GI50: 3.01 µM
SK-MEL-2; [11]
  CC50: > 100 µM
SK-MEL-2; read-out: TGI
  TGI: > 100 µM
SK-MEL-2; read-out: pGI50 (converted)
  GI50: 3.02 µM
SK-MEL-2; [12]
  CC50: > 100 µM
SK-MEL-2; read-out: pTGI
  TGI: > 100 µM
Malme-3M [10]
  growth at 0.1 µM: 92%
SK-MEL-28
  growth at 100 µM: 37%
OVCAR-4
  growth at 100 µM: 29%
